Tests used:
[1] = biological target: T1, eqBChE (Equus caballus, UniProt P81908); assay: Kinetic study of eqBChE inhibition (Lineweaver-Burk plots); format: biochemical; conditions: for type of inhibition: Lineweaver-Burk plot analysis; for KIS (binding with the enzyme-substrate complex): secondary plot of 1/Vmax versus compound concentration; for KIS (binding with the enzyme-substrate complex) / Ki: substrate BTCI; for Ki: secondary plot of slope (Km/Vmax) versus compound concentration, read-out: KI (binding with the free enzyme)
T1 construct: butylcholinesterase was from equine serum (eqBChE); purchased Sigma-Aldrich; host or cells: equine serum
T1 sequence (P81908 whole entry): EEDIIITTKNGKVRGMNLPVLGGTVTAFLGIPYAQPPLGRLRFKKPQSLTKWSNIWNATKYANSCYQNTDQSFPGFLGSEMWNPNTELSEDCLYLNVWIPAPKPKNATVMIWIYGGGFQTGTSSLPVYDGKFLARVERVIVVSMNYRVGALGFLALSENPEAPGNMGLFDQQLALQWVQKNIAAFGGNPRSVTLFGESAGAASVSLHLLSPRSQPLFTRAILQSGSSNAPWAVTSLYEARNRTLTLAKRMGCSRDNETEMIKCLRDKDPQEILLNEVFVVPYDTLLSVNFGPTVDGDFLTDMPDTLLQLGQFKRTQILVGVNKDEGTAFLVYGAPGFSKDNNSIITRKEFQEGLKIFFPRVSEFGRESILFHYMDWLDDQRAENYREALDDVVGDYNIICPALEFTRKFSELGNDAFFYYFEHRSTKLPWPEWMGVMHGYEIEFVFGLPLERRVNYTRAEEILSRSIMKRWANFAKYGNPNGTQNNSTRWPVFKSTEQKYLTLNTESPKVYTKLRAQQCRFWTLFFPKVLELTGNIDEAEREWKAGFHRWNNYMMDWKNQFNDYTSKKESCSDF
Procedure: . Further to evaluate the selective characteristics and type of inhibition, we investigated the kinetic behaviour of eqBChE at different concentration of S-butyrylthiocholine iodide (BTCI) and inhibitors by Lineweaver-Burk plot analysis (Fig. 2).
(§1) The enzymes and reagents for biochemical assays were obtained from Sigma-Aldrich. Kinetic assays of cholinesterase activity were performed using Ellman’s method and analyzed as previously described. Briefly, in the microplate assay the reaction mixture contained phosphate buffer (0.1 M, pH 8.0), AChE or BChE solution (0.3 or 0.15 U/mL respectively), 5,5′-dithiobis-(2-nitrobenzoic) acid (DTNB; 1.5 mM), and inhibitor dissolved in 1% DMSO at the desired concentrations or DMSO alone (control) in a final volume of 0.2 mL. Finally, acetylthiocholine iodide (ATCI) or S-butyrylthiocholine iodide (BTCI) (1.5 mM) as the substrate was added to the reaction mixture and the absorbance immediately monitored at 405 nm. The activity of the enzymes was performed at 25 °C.
Kinetic characterization was performed by constructing Lineweaver-Burk plots by plotting 1/V vs 1/[S] in the presence of different concentrations of inhibitor and substrate. Kinetics constants were determined by the replots of the Slopes (KM/Vmax) or 1/Vmax versus the inhibitor concentration.

[2] = ABTS radical-scavenging antioxidant assay; conditions: mean ± SD of three independent experiments
Procedure: Total free radical-scavenging capacity of the compounds was determined by ABTS^.+ [2,2′-azinobis-(3-ethylbenzothiazoline-6-sulfonic acid)] method using Trolox as antioxidant standard, as previously reported.

[3] = biological target: T2, EeAChE (Electrophorus electricus, UniProt O42275); assay: biochemical; format: biochemical; conditions: for IC50: mean ± SD, n = 3
T2 construct: purchased Sigma-Aldrich
T2 sequence (O42275 24-633): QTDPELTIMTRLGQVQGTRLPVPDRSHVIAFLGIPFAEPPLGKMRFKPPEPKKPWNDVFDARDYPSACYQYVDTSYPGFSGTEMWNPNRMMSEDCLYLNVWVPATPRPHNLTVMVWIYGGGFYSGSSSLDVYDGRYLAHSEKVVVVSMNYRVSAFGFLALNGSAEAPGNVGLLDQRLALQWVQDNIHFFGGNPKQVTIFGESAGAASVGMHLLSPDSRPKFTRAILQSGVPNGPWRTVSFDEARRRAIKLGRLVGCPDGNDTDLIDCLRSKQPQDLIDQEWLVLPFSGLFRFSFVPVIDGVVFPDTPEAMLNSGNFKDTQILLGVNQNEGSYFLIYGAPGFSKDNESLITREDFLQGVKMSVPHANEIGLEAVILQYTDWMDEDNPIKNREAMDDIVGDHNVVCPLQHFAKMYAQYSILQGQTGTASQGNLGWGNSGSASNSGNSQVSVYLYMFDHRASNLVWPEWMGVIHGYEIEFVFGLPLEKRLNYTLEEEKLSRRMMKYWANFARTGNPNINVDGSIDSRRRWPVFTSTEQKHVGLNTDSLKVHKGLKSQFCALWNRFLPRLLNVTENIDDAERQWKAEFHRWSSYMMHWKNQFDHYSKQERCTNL
Procedure: as §1, with “Finally, acetylthiocholine iodide (ATCI) or S-butyrylthiocholine iodide (BTCI) (1.5 mM) as the substrate was added to the reaction mixture and the absorbance immediately monitored at 405 nm.” left out
(§2) Acetylcholinesterase was from Electrophorus electricus (EeAChE), while butylcholinesterase was from equine serum (eqBChE) or human serum (hBChE).
(§3) IC50 values were calculated by the interpolation of dose-response curves using GraphPad Prism 6 (Graphpad Software, San Diego, California, USA).

[4] = biological target: T1, eqBChE; assay: biochemical; format: biochemical; conditions: for Selectivity to eqBChE: IC50 for AChE/IC50 for BChE; for IC50: mean ± SD, n = 3
Procedure: as §1, with “Finally, acetylthiocholine iodide (ATCI) or S-butyrylthiocholine iodide (BTCI) (1.5 mM) as the substrate was added to the reaction mixture and the absorbance immediately monitored at 405 nm.” left out
as §2, §3

[5] = biological target: T3, hBChE (Homo sapiens, UniProt P06276); assay: Cholinesterase assay (Ellman's method), hBChE; format: biochemical; conditions: for IC50: mean ± SD, n = 3; for hBChE inhibitory activity, times more active than galantamine: relative to reference compound galantamine, same assay conditions
T3 construct: butylcholinesterase was from equine serum (eqBChE) or human serum (hBChE); purchased Sigma-Aldrich; host or cells: human serum
T3 sequence (P06276 29-602): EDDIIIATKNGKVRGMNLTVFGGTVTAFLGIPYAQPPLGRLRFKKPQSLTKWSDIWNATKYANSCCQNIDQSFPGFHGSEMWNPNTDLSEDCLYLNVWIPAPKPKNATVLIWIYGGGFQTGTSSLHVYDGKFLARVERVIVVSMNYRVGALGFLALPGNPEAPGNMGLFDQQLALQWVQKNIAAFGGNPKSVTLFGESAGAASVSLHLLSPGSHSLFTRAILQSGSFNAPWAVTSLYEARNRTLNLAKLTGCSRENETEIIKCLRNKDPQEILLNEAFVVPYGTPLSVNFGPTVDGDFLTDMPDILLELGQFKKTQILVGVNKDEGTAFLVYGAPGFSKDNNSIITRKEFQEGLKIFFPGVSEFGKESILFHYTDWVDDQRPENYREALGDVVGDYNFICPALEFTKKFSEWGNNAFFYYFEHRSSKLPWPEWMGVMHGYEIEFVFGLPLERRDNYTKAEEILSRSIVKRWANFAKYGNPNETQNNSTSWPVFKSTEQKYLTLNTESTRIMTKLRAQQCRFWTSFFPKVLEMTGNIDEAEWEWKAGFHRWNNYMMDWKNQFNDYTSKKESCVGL
Procedure: as §1, with “Finally, acetylthiocholine iodide (ATCI) or S-butyrylthiocholine iodide (BTCI) (1.5 mM) as the substrate was added to the reaction mixture and the absorbance immediately monitored at 405 nm.” left out
as §2, §3

[6] = tested on: NSC-34 cells; assay: MTT cell viability assay; format: cell-based, Mouse; conditions: 0–100 μM, 24 h, at the concentration in which eqBChE activity was inhibited
Procedure: After obtaining encouraging results from the inhibitory assay experiments, biosafety effectiveness of the two promising compounds (15 and 17) was further evaluated. Cells were treated with different concentration of each compound (0–100 μM) for 24 h and their potential cytotoxic effect on NSC-34 cells was determined by using MTT assay. Viability of the cells treated with the compounds 15 and 17 and comparison to the control cells were performed (Fig. 4).
Mouse motor neuron like cell line (NSC-34) was purchased from the American Type Culture Collection (ATCC, Manassas, Virginia, USA). The cells were cultured in Dulbecco’s Modified Eagle Medium (DMEM) containing 10% fetal bovine serum (FBS; Gibco, NY, USA), and 1% penicillin/streptomycin at 37 °C in a humidified atmosphere with 5% CO2. Cell viability was detected by the colorimetric 3-(4,5-dimethylthiazol-2-yl)-2,5-diphenyltetrazolium bromide (MTT) assay. This is a colorimetric assay for measuring the activity of mitochondrial enzymes in living cells that convert MTT into purple formazan crystals. Briefly, cells were seeded in a 96-well plate (10^4 cells/well) and incubated with samples at concentration ranging from 10 to 100 μM for […]. […] The resulting violet formazan precipitates were dissolved in isopropanol and the absorbance of each well was determined at 590 nm using a microplate reader with a 630 nm reference.

[7] = tested on: BChE; conditions: previous study ref 34; cited from earlier work

SMILES	EC50 [2] [µM]	IC50 [3] [µM]	Selectivity to eqBChE [4]	IC50 [4] [µM]	other results
Oc1cc(O)cc(-c2cc3cccc(Cl)c3o2)c1 [Compound 15]	14.9	≥ 100	>16.0	6.23 ± 0.43	type of inhibition [1]: mixed-type inhibitor; KIS (binding with the enzyme-substrate complex) [1]: 8.66 µM; Ki [1]: 13.9 µM; IC50 [5]: 27.5 ± 1.82 µM; hBChE inhibitory activity, times more active than galantamine [5]: 2 times; cytotoxic effect [6]: no considerable cytotoxic effect
Oc1cc(O)cc(-c2cc3cc(Cl)ccc3o2)c1 [Compound 16]	17.6 ± 0.82	80 ± 7.3	2.2	36.6 ± 2.9	
Oc1cc(O)cc(-c2cc3cccc(Br)c3o2)c1 [Compound 17]	16.7 ± 1.31	100 ± 6.1	28.0	3.57 ± 0.25	type of inhibition [1]: non-competitive inhibitor; KIS (binding with the enzyme-substrate complex) [1]: 4.7 µM; Ki [1]: 4.3 µM; eqBChE inhibitory activity, times more active than galantamine ([4]; relative to reference compound galantamine): ~8 times; IC50 [5]: 27.5 ± 1.53 µM; hBChE inhibitory activity, times more active than galantamine [5]: 2 times; cytotoxic effect [6]: no considerable cytotoxic effect
Oc1cc(O)cc(-c2cc3cc(Br)ccc3o2)c1 [Compound 18]	17.5 ± 0.93	66 ± 4.2	2.2	30 ± 2.7	
Cc1cccc2cc(-c3cc(O)cc(O)c3)oc12 [Compound 19]	19.3 ± 1.43	> 100	>10.0	10 ± 0.96	
Cc1ccc2oc(-c3cc(O)cc(O)c3)cc2c1 [Compound 20]	18.2 ± 0.86	> 100	>8.0	12.5 ± 1.29	
Oc1cc(O)cc(-c2cc3ccccc3o2)c1 [Compound 21]	23.2 ± 1.54	> 100	>4.0	25.2 ± 1.3	
Oc1cc(-c2cc3cccc(Cl)c3o2)cc(O)c1O [Compound 22]	26.3 ± 1.46	50 ± 3.3	1.9	25.7 ± 1.6	
Oc1cc(-c2cc3cc(Cl)ccc3o2)cc(O)c1O [Compound 23]	12.5 ± 0.44	30 ± 2.8	0.78	38.2 ± 2.4	
Oc1cc(-c2cc3cccc(Br)c3o2)cc(O)c1O [Compound 24]	15.4 ± 0.81	37 ± 2.6	2.0	18.4 ± 0.93	
Oc1cc(-c2cc3cc(Br)ccc3o2)cc(O)c1O [Compound 25]	9.46 ± 0.68	25 ± 1.9	0.90	27.6 ± 1.9	
Cc1cccc2cc(-c3cc(O)c(O)c(O)c3)oc12 [Compound 26]	6.6 ± 0.24	66 ± 5.4	3.3	19.8 ± 1.2	
Cc1ccc2oc(-c3cc(O)c(O)c(O)c3)cc2c1 [Compound 27]	8.93 ± 0.57	≥ 100	>6.2	16.1 ± 1.05	
Oc1cc(-c2cc3ccccc3o2)cc(O)c1O [Compound 28]	52.8 ± 2.43	> 100		> 100	cholinesterase inhibitory activity (EeAChE) [3]: did not exert any cholinesterase inhibitory activity; cholinesterase inhibitory activity (eqBChE) [4]: did not exert any cholinesterase inhibitory activity
Cc1c(C)c2c(c(C)c1O)CCC(C)(C(=O)O)O2 (stereo not drawn) [Trolox, reference compound]	13 ± 1.1				
